{"source": "paper PMC9841533", "about": "“Microtubule-Stabilizing 1,2,4-Triazolo[1,5-a]pyrimidines as Candidate Therapeutics for Neurodegenerative Disease: Matched Molecular Pair Analyses and Computational Studies Reveal New Structure–Activity Insights” (Journal of Medicinal Chemistry, 2022)", "key": {"[1]": {"test_system": "AcTub levels in OA-treated primary mouse cortical neurons", "assay": "Okadaic acid (OA) assay, AcTub ELISA in primary mouse cortical neurons", "type": "cell-based", "details": "OA 15 nM, 8 h, compound 1 and 10 μM", "experimental": "To further evaluate the activity of Class I alkyne derivatives and hybrid compounds, several compounds were also assessed for their ability to compensate for MT deficits in primary neuron cultures that were treated with the phosphatase inhibitor, okadaic acid (OA). As previously described,[11] treatment of rodent neurons with OA results in tau hyperphosphorylation and MT collapse that presumably results, at least in part, from tau disengagement from MTs. Co-treatment of neurons with Class I TPDs, such as 1, along with OA prevents this MT collapse, with a resulting normalization of MT structure and neuronal processes which can be observed upon visual inspection of the neurons or through an assessment of neuronal AcTub levels, while Class II TPDs are generally unable to provide meaningful compensation of MT deficits, especially when tested at higher (i.e., 10 μM) compound concentration.[11],[12]\nFigure 4 ELISA determination of AcTub levels in homogenates from primary rat cortical neurons treated with either vehicle, or OA (15 nM) in the presence of vehicle or TPD 1, 8, 9 (A); and primary mouse cortical neurons treated with vehicle, or OA (15 nM) in the presence of vehicle or TPD 1, 24, 45, 46, 53, 54 (B). Error bars represent SEM, with ***, p < 0.001 relative to vehicle treatment in the absence of OA as determined by one-way ANOVA.\nCompound-induced changes in acetylated-tubulin and α-tubulin in QBI293 cells or primary mouse or rat neurons were as previously described.[11],[12] For compound testing, QBI293 cells were plated at a density of 2 × 10^5 cells/well in 12-well plates. The plated cells were incubated overnight, after which the medium was aspirated and fresh medium containing vehicle (0.25–0.3% DMSO) or test compound was added. Test compounds were prepared as 4–20 mM stock solutions in 100% DMSO, and these were diluted in culture medium prior to addition to the QBI293 cells. After 4 h incubation, whole-cell extracts were prepared from the QBI293 cells as described[11] and the supernatant fraction from each sample was assessed for protein content by bicinchoninic acid (BCA) assay. The amount of acetyl-tubulin (AcTub) and α-tubulin (αTub) within the cell extract samples was quantified using specific enzyme-linked immunosorbent assays (ELISA), as previously described.[11] Acetyl-tubulin levels were determined in a similar manner in rat or mouse cortical neuron cultures in which embryonic dissociated cortical neurons were plated at 3 × 10^5 cells/well in poly-D-lysine-coated 12-well plates, essentially as previously described.[11] The neurons were allowed to grow for 10 days before they were treated for 8 h with 15 nM okadaic acid in the presence or absence of test compound prepared as described above, or vehicle (0.25% DMSO). Culture homogenates were prepared for the determination of AcTub levels by ELISA as previously described.[11]\nVehicleVehicleVehicleVehicle25 (1 µM)\nFigure S2. Assessment of AcTub levels in primary mouse cortical neurons treated with vehicle,\n(§1) (1 picture or pasted object on this page, not shown here)"}, "[2]": {"assay": "Plasma pharmacokinetics in CD-1 mice", "type": "in vivo, mouse", "details": "i.v. 5 mg/kg", "experimental": "Studies to determine the pharmacokinetic properties of compounds 53 and 60 were conducted at Touchstone Biosciences (Plymouth Meeting, PA). For the determination of plasma pharmacokinetics, three male CD-1 mice (2–3 months of age) were injected i.v. (tail vein) with test compound at a dose of 5 mg/kg in a solution of 10% DMSO, 40% polyethylene glycol, and 50% water, and another three male CD-1 mice received oral gavage dosing of 60 formulated as above at a dose of 20 mg/kg. Blood samples were collected from the saphenous or submandibular veins at multiple time points after dosing and collected in Greiner MiniCollect K2EDTA tubes. Compound levels in plasma were determined by LC-MS/MS, using protocols similar to those previously described.[16],[22]"}, "[3]": {"assay": "Resazurin cell viability assay, QBI293", "type": "cell-based", "details": "human, QBI293 cells, three biological replicates, read-out: QBI293 CC50 ± SD", "experimental": "(§2) Cell Culture. QBI293 and HeLa cells were cultured in DMEM supplemented with 10% heat-\n(§3) inactivated FBS and 1% penicillin-streptomycin. Cells were grown in T175 cell culture flasks maintained\n(§4) at 37 ℃ in 5% CO2 and sub-c ultured when at 60-8 0% cell confluence.\n(§5) Resazurin Cell Viability Assay. Cytotoxicity in QBI293 and HeLa cells was measured using the\n(§6) resazurin cell viability assay.1 Test compounds were serially diluted in DMSO and added to 96-well\n(§7) polystyrene assay plates to give final assay concentrations ranging from 100 nM to 4000 nM (1 µL; 1%\n(§8) total DMSO). Fresh medium was added to the assay plate (49 µL/well). QBI293 or HeLa cells were\n(§9) cells/well. Assay plates were incubated at 37 °C and 5% CO2 for 48 h, followed by addition of 20 µL 0.5\n(§10) mM resazurin (Alfa Aesar, Cat. B21187) in PBS to each well. Assay plates were incubated in the dark for\nas §1\n(§11) 4 h at 37 °C. Fluorescence was measured at 531 nm and 595 nm excitation and emission wavelengths,\n(§12) respectively, using a 2104 EnVision® multilabel plate reader. The viability of each well was normalized to\n(§13) positive and negative controls in each assay plate. Dose-response curves were generated and CC50 values\n(§14) calculated with GraphPad Prism, version 9.3 (San Diego, CA) using a sigmoidal four parameter logistic\n(§15) curve. The means ± standard deviations from three biological replicates are shown.\n(§16) (1) O'Brien, J.; Wilson, I.; Orton, T.; Pognan, F. Investigation of the Alamar Blue (resazurin) fluorescent\n(§17) dye for the assessment of mammalian cell cytotoxicity. Eur. J. Biochem. 2000, 267 (17), 5421-5426."}, "[4]": {"assay": "Resazurin cell viability assay, HeLa", "type": "cell-based", "details": "human, HeLa cells, three biological replicates, read-out: HeLa CC50 ± SD", "experimental": "as §2, §3, §4, §5, §6, §7, §8, §9, §10, §1, §11, §12, §13, §14, §15, §16, §17"}}}
{"smiles": "C[C@@H](Nc1c(-c2c(F)cc(C#CCCO)cc2F)c(Cl)nc2ncnn12)C(C)(C)C", "note": "[Compound 53, (R)-4-(4-(5-Chloro-7-((3,3-dimethylbutan-2-yl)amino)-[1,2,4]triazolo[1,5-a]pyrimidin-6-yl)-3,5-difluorophenyl)but-3-yn-1-ol]", "values": [{"measurement": "prevention/correction of OA-induced MT collapse (AcTub levels)", "setting": "[1]", "value": "can prevent the OA-induced MT collapse"}, {"measurement": "half-life (T1/2)", "setting": "[2]", "value": "relatively prolonged half-life"}, {"measurement": "CC50 at 48 h", "setting": "[3]", "value": "30.1 ± 4.8", "unit": "nM"}, {"measurement": "CC50 at 48 h", "setting": "[4]", "value": "30.8 ± 4.7", "unit": "nM"}]}
